Here are results for 10 compounds from US20110054039A1, “USE OF ALKYL SULFATES OR SULFONATES AGAINST PROPIONIBACTERIUM ACNES” (priority 2008, published 2011).

Structures are written as SMILES. Some results are limits rather than exact numbers.

Holding throughout (format): cell-based
Assay [1] relates to Propionibacterium acnes NCTC 737. In words: Disc Diffusion Assay (DDA). The conditions noted are these: P. acnes NCTC 737, 200 μg of test compound per disc; for zone of inhibition at 200 µg/disc: Cutibacterium acnes, NCTC737, read-out: DDA (diameter of zone of inhibition). How it is done:
(§1) The test micro-organism represented the cutaneous propionibacteria. […] The propionibacteria are clinically significant due to their involvement in acne. This is a very common, complex and multi-factorial skin disease in which P. acnes and other Propionibacterium spp. […] They are also opportunistic pathogens in compromised hosts.
(§2) The propionibacteria were cultured and maintained on Wilkins-Chalgren Anaerobe Medium (agar and broth) at pH 6.0; all cultures were incubated anaerobically at 37° C. for 72 hours.
This is an internationally recognised standard method for qualitatively assessing the antimicrobial activity of a compound.
(§3) A sterile paper disc was impregnated with a sample of the test compound in a suitable solvent and 30 minutes allowed for the solvents to evaporate (where possible). The disc was then placed on an agar plate onto which the test micro-organism had been inoculated. The plate was then incubated under the conditions described above, following which it was examined visually for signs of microbial growth. […] The diameter of this zone of ‘inhibition’ was measured using a ProtoCOL™ automated zone sizer (Synbiosis, Cambridge, UK).
(§4) MIC, MBC and DDA assays, as described above, were carried out using as the test compound sodium n-tetradecyl sulphate (STS, ex Sigma Aldrich, UK), dissolved in distilled water. All the experiments were conducted in triplicate. For the DDA experiments, 200 μg of the test compound was loaded onto each disc.
(§5) The MIC/MBC experiments were conducted in triplicate, with the exception of those for SDS and ADS which were conducted in duplicate. The DDAs were performed either in triplicate, in which case standard deviations are quoted in parentheses, or as a single replicate. For the DDA experiments, 200 μg of the test compound was loaded onto each disc.
(Agar diffusion results depend on both activity and mobility in agar.)

For assay [2] the test system is unchanged. The experiment in a line: Minimum Biocidal (Bactericidal) Concentration (MBC) assay. Conditions: P. acnes NCTC 737; for MBC: Cutibacterium acnes, NCTC737, sub-culture on antibiotic-free agar after MIC assay, read-out: MBC. How it is done:
as §1, §2
This assay, normally carried out after an MIC assay, determines the minimum concentration of a compound that is lethal to the micro-organism being tested.
These samples were then individually sub-cultured on antibiotic-free agar medium, under the incubation conditions described above. Following incubation they were examined visually for microbial growth.
as §4, §5

The test system is the same in assay [3]. The experiment in a line: Supplemented Disc Diffusion Assay (agar with salt or lipid). The conditions noted are these: P. acnes NCTC 737, 200 μg per disc; for zone of inhibition at 200 µg/disc: Cutibacterium acnes, NCTC737, 72 h. How it is done: as §1, §2, §3
Performance under these conditions can provide a more reliable indication of activity on topical application.
as §4, §5

Assay [4] has the same test system. In words: Minimum Inhibitory Concentration (MIC) assay, broth microdilution. Conditions: for MIC: Cutibacterium acnes, NCTC737, P. acnes NCTC 737, Wilkins-Chalgren broth pH 6.0, anaerobic, 37° C., 72 hours, read-out: MIC. How it is done: as §1, §2
This is a standard international method for quantitatively assessing the antimicrobial activity of a compound in a liquid medium. […] The culture media were as described above.
The wells were inoculated with a liquid suspension of freshly grown micro-organism and incubated under the conditions described above. After incubation, the microtitre plate was examined visually (with the aid of a light box) for cloudiness in each well, which would indicate microbial growth. The MIC value was recorded as the lowest concentration of test compound required to inhibit microbial growth, ie the lowest concentration for which the liquid in the well remained clear.
The assays included both negative (culture medium with no micro-organisms) and positive (culture medium plus diluting solvent plus micro-organism) controls.
as §4, §5

Where [5] appears, read: agar supplemented with sodium chloride (100 mM), read-out: DDA + salt.
Where [6] appears, read: agar supplemented with triolein at 1% v/v, read-out: DDA + lipid.

Turning to `CCCCCCOS(=O)(=O)[O-].[Na+]` [Sodium n-hexyl sulphate, sodium n-hexyl sulphate], the zone of inhibition at 200 µg/disc in assay [1], in assay [3] (setting [5]) and in assay [3] (setting [6]) was 0 mm each time. For the same compound, in assay [2], the MBC (in general, the smallest concentration meeting the test's criterion for killing) was greater than 250 µg/mL. In addition, the MIC – broadly, the lowest concentration that inhibits growth of the organism – in assay [4] was greater than 250 µg/mL.
On to `CCCCCCCCCOS(=O)(=O)[O-].[Na+]` [Sodium n-nonyl sulphate, sodium n-nonyl sulphate], for which the zone of inhibition at 200 µg/disc in assay [1], in assay [3] (setting [5]) and in assay [3] (setting [6]) was 0 mm throughout. Further, the MBC in assay [2] came out at 250 µg/mL. For the same compound, in assay [2], the MIC/MBC ratio is reported as 1. Further, the MIC in assay [4] was 250 µg/mL.
Take `CCCCCOS(=O)(=O)[O-].[Na+]` [Sodium n-pentyl sulphate, sodium n-pentyl sulphate]: the zone of inhibition at 200 µg/disc in assay [1], in assay [3] (setting [5]) and in assay [3] (setting [6]) was 0 mm throughout. In addition, the MBC in assay [2] is greater than 250 µg/mL. Also, the MIC in assay [4] is greater than 250 µg/mL.
As for `CCCCCCCCCCCCCCOS(=O)(=O)O` [Sodium n-tetradecyl sulphate, sodium n-tetradecyl sulphate], the zone of inhibition at 200 µg/disc in assay [1] worked out at 29.9 mm; in assay [3] (setting [5]), 31.6 mm; in assay [3] (setting [6]) it was 33.7 mm. For the same compound, the “DDA (diameter of zone of inhibition)” value in assay [1] (sulphate) came out at 29.87 mm. Further, the MBC in assay [2] is 0.98 µg/mL. Also, the MIC/MBC ratio in assay [2] turned out to be 1. For the same compound, the “DDA + salt” value in assay [3] (agar supplemented with sodium chloride (100 mM), sulphate) came to 31.62 mm. Moreover, the “DDA + lipid” value in assay [3] (agar supplemented with triolein at 1% v/v, sulphate) is recorded as 33.67 mm. For the same compound, the MIC in assay [4] was 0.98 µg/mL. Also, in assay [4] (summary of MIC, MBC and DDA results), the “antibacterial activity against P. acnes NCTC 737 (in words)” value was “highly active”.
For `CCCCCCCCCCCOS(=O)(=O)[O-].[Na+]` [Sodium n-undecyl sulphate, sodium n-undecyl sulphate], the zone of inhibition at 200 µg/disc in assay [1] was determined as 17.3 mm; in assay [3] (setting [5]) it was 19.9 mm; in assay [3] (setting [6]), 17.7 mm. Moreover, the minimal bactericidal concentration (MBC) in assay [2] was 62.5 µg/mL. Also, the MIC/MBC ratio in assay [2] is 0.5. Moreover, the MIC in assay [4] was determined as 31.2 µg/mL.
Consider `CCCCCCCCCCCCCCCCCCOS(=O)(=O)[O-].[Na+]` [Sodium octadecyl sulphate, sodium octadecyl sulphate], for which the zone of inhibition at 200 µg/disc in assay [1] worked out at 9.41 mm; in assay [3] (setting [5]) it was 9.3 mm; in assay [3] (setting [6]), 9.92 mm. For the same compound, the MBC in assay [2] was found to be 62.5 µg/mL. Also, in assay [2], the MIC/MBC ratio is 0.03. The MIC in assay [4] worked out at 1.95 µg/mL.
`CCCCCCCCOS(=O)(=O)[O-].[Na+]` [Sodium octyl sulphate, sodium octyl sulphate]: the zone of inhibition at 200 µg/disc in assay [1], in assay [3] (setting [5]) and in assay [3] (setting [6]) was 0 mm each time. In assay [2], the MBC is greater than 250 µg/mL. In addition, in assay [4], the MIC is greater than 250 µg/mL.
For `CCCCCS(=O)(=O)[O-].[Na+]` [Sodium pentane sulphonate, sodium pentane sulphonate], the zone of inhibition at 200 µg/disc in assay [1], in assay [3] (setting [5]) and in assay [3] (setting [6]) was 0 mm each time. Also, in assay [2], the minimum bactericidal concentration (MBC) was greater than 250 µg/mL. In addition, in assay [4], the MIC was greater than 250 µg/mL.
With `CCCCCCCCCCCCCOS(=O)(=O)[O-].[Na+]` [Sodium tridecyl sulphate, sodium tridecyl sulphate], the zone of inhibition at 200 µg/disc in assay [1] came out at 32.2 mm; in assay [3] (setting [5]), 33.3 mm; in assay [3] (setting [6]), 31.8 mm. In assay [2], the MBC turned out to be 7.8 µg/mL. Also, the MIC/MBC ratio in assay [2] turned out to be 1. In addition, in assay [4], the MIC was 7.8 µg/mL.
Turning to `CCCCCCCOS(=O)(=O)[O-].[Na+]` [Sodium-n-heptyl sulphate, sodium-n-heptyl sulphate], the zone of inhibition at 200 µg/disc in assay [1], in assay [3] (setting [5]) and in assay [3] (setting [6]) was 0 mm throughout. Moreover, the minimum bactericidal concentration (MBC) in assay [2] was greater than 250 µg/mL. In addition, the MIC in assay [4] was greater than 250 µg/mL.
